The values below come from publication PMC9060145 (Skin Health and Disease, 2021).

The target in data set [1] is T1, CYP2C8 (Homo sapiens, UniProt P10632).
T1 sequence (P10632 1-490): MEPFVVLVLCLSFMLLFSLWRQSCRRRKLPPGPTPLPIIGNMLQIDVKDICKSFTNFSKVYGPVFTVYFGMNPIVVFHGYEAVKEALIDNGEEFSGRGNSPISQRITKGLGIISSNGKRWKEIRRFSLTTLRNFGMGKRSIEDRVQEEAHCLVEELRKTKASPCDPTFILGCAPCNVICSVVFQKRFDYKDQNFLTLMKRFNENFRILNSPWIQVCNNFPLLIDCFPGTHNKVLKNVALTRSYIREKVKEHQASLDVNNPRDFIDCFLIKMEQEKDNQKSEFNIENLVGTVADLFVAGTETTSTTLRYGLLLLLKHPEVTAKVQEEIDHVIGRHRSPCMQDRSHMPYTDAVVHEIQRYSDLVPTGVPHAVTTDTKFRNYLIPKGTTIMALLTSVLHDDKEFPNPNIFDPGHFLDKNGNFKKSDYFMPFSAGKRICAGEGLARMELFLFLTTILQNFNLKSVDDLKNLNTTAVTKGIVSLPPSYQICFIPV
Put plainly: Qualitative CYP2C8 screening, Vivid CYP2C8 Green kit, fluorimetry. Particulars: recombinant CYP2C8 Baculosomes, probe Vivid DBOMF, 1 µM (1000 nM) compound, substrate DBOMF. In kind it is biochemical. More on the design: purchased Life Technologies; host or cells: Baculosomes. The protocol:
CYP450 inhibition assays (excluding CYP19 and 1 µM CYP2C8) were performed as previously described.[31] Substrate metabolite formation was measured by HPLC‐MS/MS. Percent of control activity was determined by comparing metabolite peak areas with and without test compound. Qualitative screening of CYP2C8 (1 µM) and CYP19 is described in detail in Supporting Information. Reference compound IC50 values were determined by non‐linear regression analysis using Hill equation curve fitting.
A kinetic reaction was carried out for CYP2C8 screening in triplicate according to the Vivid? CYP450 Screening Kit manual protocol (MAN0003095). Briefly, a master pre-mix composed of CYP2C8 Baculosomes®, regeneration system of human P450 reductase/human cytochrome b5, and reaction buffer was prepared before adding 50 µL to each well in a black 96-well plate. Test compounds, positive inhibition control, and solvent controls were prepared as a 2.5X concentration with DMSO in reaction buffer of which 40 µL was dispensed into the 96-well plate. […] The test samples were pre-incubated at 37 °C for 15 min in the fluorescent microplate reader before adding a 10 µL mixture of substrate and NADP^+. Immediately, the plate was read at 2 min intervals over a 30 min time period at 37 °C. The raw data in relative fluorescent units (RFU) was analyzed according to the kinetic assay mode as outlined in the published protocol.

In data set [2] the target is T1, CYP2C8. Put plainly: CYP450 inhibition assay, human liver microsomes. More on the design: from tissue; host or cells: human liver microsomes (per the earlier reading and the cited method). Particulars: substrate paclitaxel. It is filed as biochemical.

As a reminder, the inhibition is the change of the read-out against control, counted positive when it falls.

Consider `CC(C)(O)c1ccccc1CC[C@@H](SCC1(CC(=O)O)CC1)c1cccc(/C=C/c2ccc3ccc(Cl)cc3n2)c1` [montelukast], for which the inhibition at 30 min, 1 µM on CYP2C8 [1] is 100%. Moreover, the “nH (hill coefficient)” value at CYP2C8 [2] was found to be 0.6.
